Values quoted from earlier work, collected in patent US20100047343A1, “MULTIPARTICULATE FORMULATION HAVING TRAMADOL IN IMMEDIATE AND CONTROLLED RELEASE FORM” (The University of Kansas, priority 2006, published 2010).
Where a name gives a salt, the structure may show the parent alone. Read-outs that look alike come from different tables or passages of the source.

Assays:
[1] = for accumulation: multiple dose treatment with tramadol HCl; for half-life: single oral dose of 100 mg
[2] = single oral dose of rapid release tramadol HCl (100 mg)
[3] = after oral administration of ULTRAM

In the case of CN(C)C[C@H]1CCCC[C@]1(O)c1cccc(O)c1 [M1 derivative], the accumulation [1] is listed as “approximately 2 fold” and the half-life [1] is listed as 9 h.

In the case of COc1cccc(C2(O)CCCCC2CN(C)C)c1 (centres unmarked) [tramadol HCl], the solubility in water (24° C.) is given as 790 mg/mL, the “density of saturated solution” value (37° C.) is given as 1.1079 and the solubility in water (37° C.) is given as 840 mg/mL. The “viscosity (sat'd. sol.)” value (37° C.) was 86.5 cp, the bioavailability [1, 3] was 68% and the “time to peak serum concentrations” value [1, 3] was at most 2 h. For the same compound, the “duration of the analgesic effect” value [2] was “about 6 hours”.

In the case of COc1cccc(C2(O)CCCCC2CN(C)C)c1 (centres unmarked) [tramadol], the accumulation [1] is listed as “approximately 2 fold” and the half-life [1] is listed as 5.1 h.
